From US8541585B2, “N-acyl cyclic amine derivative or pharmaceutically acceptable salt thereof” (Dainippon Sumitomo Pharma Co., Ltd., priority 2010, dated 2013)

Legend:
human D2L receptor = human D2L receptor (Homo sapiens, UniProt P14416); test: Dopamine D2L receptor binding assay ([3H]-spiperone); conditions: 10 nM test drug, [3H]-spiperone 0.5 nM, human D2L receptor-expressing CHO cell membrane; for inhibition at 0.01 µM: read-out: BINDING INHIBITION RATE (%) D2L 10 nM
Procedure, shortened: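 CHO membranes expressing human D2L incubated 60 min at RT with 0.5 nM [³H]-spiperone in 50 mM Tris-HCl pH 7.6; filtration and scintillation counting. Nonspecific binding with 10 μM spiperone; % binding inhibition at 10 nM test drug.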

human 5-HT2A receptor = biological target: T1, human 5-HT2A receptor (Homo sapiens, UniProt P28223); test: Serotonin 5-HT2A receptor binding assay ([3H]-ketanserin); conditions: 1 nM test drug, [3H]-ketanserin 1 nM, human 5-HT2A receptor-expressing CHO cell membrane; for inhibition at 0.001 µM: read-out: BINDING INHIBITION RATE (%) 5HT2A 1 nM
T1 construct: expressed in transfected cells; host or cells: CHO cells (membrane preparation)
Procedure, shortened: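 Membranes from CHO cells expressing human 5-HT2A incubated 15 min at 37 °C with 1 nM [3H]-ketanserin in 50 mM Tris-HCl pH 7.6, then filtered and counted by scintillation. Nonspecific binding defined with 10 μM MDL-100907; inhibition rate determined at 1 nM or 10 nM test drug.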

human 5-HT6 receptor = biological target: T2, human 5-HT6 receptor (Homo sapiens, UniProt P50406); test: Serotonin 5-HT6 receptor binding assay ([3H]-clozapine); conditions: 100 nM test drug, [3H]-clozapine 2 nM, human 5-HT6 receptor-expressing CHO cell membrane; for inhibition at 0.1 µM: read-out: BINDING INHIBITION RATE (%) 5HT6 100 nM
T2 construct: expressed in transfected cells; host or cells: CHO cells (membrane preparation)
Procedure, shortened: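 Membranes from CHO cells expressing human 5-HT6 were incubated with [3H]-clozapine (2 nM final) for 40 min at room temperature in 50 mM Tris-HCl pH 7.6, 4 mM CaCl2, 0.5 mM EDTA. Bound radioactivity was filtered and counted. Values are % binding inhibition at 100 nM test drug, with nonspecific binding defined by 10 μM SB-258585.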

human α1D receptor = biological target: T3, human α1D receptor (Homo sapiens, UniProt P25100); test: Adrenaline α1D receptor binding assay ([3H]-prazosin); conditions: 100 nM test drug, [3H]-prazosin 0.6 nM, human α1D receptor-expressing CHO cell membrane; for inhibition at 0.1 µM: read-out: BINDING INHIBITION RATE (%) α1D 100 nM
T3 construct: expressed in transfected cells; host or cells: CHO cells (membrane preparation)
T3 sequence (P25100 1-572): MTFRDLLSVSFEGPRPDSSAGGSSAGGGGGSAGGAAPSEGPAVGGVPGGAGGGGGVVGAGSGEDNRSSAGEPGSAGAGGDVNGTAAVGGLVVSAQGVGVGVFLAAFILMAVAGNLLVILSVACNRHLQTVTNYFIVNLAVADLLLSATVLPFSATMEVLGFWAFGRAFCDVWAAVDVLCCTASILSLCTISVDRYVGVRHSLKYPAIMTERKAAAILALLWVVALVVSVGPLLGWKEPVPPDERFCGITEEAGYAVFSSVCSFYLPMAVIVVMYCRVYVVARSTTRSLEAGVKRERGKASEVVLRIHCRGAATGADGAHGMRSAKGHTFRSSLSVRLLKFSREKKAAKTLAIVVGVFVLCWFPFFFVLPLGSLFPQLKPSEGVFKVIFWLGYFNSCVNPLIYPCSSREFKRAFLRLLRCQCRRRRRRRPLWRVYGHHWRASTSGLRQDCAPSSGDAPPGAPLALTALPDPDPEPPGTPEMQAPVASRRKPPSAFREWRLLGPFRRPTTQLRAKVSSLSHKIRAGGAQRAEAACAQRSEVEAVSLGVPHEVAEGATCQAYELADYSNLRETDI
Procedure, shortened: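 Membranes from CHO cells expressing human α1D, incubated 30 min at room temperature with 0.6 nM [3H]-prazosin in 50 mM Tris-HCl pH 7.6, filtered and counted. Nonspecific binding defined with 1 μM prazosin. Test drug at 100 nM, reported as percent inhibition of binding.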

T1 sequence (P28223 whole entry): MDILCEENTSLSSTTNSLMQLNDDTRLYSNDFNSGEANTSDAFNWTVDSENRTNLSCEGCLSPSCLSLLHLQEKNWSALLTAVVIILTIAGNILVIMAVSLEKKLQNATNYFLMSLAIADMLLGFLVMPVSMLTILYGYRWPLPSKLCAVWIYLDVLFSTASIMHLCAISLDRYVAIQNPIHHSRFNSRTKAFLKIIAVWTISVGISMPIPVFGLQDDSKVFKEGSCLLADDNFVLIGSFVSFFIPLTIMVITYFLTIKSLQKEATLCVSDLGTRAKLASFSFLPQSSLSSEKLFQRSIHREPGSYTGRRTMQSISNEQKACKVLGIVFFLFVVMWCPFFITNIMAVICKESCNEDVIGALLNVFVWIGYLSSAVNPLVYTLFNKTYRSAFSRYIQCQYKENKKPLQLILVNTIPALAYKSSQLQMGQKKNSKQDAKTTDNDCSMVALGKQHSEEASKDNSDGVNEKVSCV
T2 sequence (P50406 whole entry): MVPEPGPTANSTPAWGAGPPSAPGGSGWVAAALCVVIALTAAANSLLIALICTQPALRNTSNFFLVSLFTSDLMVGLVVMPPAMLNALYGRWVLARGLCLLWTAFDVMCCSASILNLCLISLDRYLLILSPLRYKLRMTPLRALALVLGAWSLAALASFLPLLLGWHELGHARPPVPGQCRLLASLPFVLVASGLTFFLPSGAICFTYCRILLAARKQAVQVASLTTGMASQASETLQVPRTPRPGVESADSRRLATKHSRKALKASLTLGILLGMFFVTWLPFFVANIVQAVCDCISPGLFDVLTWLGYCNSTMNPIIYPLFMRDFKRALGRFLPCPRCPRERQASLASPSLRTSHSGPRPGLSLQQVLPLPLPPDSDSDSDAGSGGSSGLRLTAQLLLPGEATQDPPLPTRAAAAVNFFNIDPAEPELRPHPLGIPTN
Sequence of human D2L receptor (P14416 whole entry): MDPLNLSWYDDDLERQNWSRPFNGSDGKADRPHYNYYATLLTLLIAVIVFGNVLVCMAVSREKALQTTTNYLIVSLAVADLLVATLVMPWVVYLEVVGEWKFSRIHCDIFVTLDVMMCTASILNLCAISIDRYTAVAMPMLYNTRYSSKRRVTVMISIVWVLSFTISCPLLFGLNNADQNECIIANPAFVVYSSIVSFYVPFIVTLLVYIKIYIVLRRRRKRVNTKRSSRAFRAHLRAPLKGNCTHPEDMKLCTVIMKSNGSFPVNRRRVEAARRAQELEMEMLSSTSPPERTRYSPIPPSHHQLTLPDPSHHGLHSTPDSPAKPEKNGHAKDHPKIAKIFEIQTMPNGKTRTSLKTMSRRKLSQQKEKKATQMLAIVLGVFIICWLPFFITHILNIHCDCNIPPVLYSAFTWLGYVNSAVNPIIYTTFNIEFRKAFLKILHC

Compound | inhibition at 0.01 µM (human D2L receptor) [%] | inhibition at 0.001 µM (human 5-HT2A receptor) [%] | inhibition at 0.1 µM (human 5-HT6 receptor) [%] | inhibition at 0.1 µM (human α1D receptor) [%] | BINDING INHIBITION RATE (%) D2L 10 nM (human D2L receptor) [%] | BINDING INHIBITION RATE (%) 5HT2A 1 nM (human 5-HT2A receptor) [%] | BINDING INHIBITION RATE (%) 5HT6 100 nM (human 5-HT6 receptor) [%] | BINDING INHIBITION RATE (%) α1D 100 nM (human α1D receptor) [%]
Cc1cccc2cc(C(=O)N3CCC[C@H]3CCN3CCC(C(=O)c4ccc(F)cc4)CC3)[nH]c12 [Example 61] | 69 | 46 | 82 | 29 |  |  |  | 
O=C(c1ccc(F)cc1)C1CCN(CC[C@@H]2CCCN2C(=O)c2cc3c(F)cccc3[nH]2)CC1 [Example 62] | 81 | 61 | 87 | 43 |  |  |  | 
O=C(c1ccc(F)cc1)C1CCN(CC[C@@H]2CCCN2C(=O)c2cc3ccc(F)cc3[nH]2)CC1 [Example 159, (S)-(6-Fluoro-1H-indol-2-yl)(2-(2-(4-(4-fluorobenzoyl)piperidin-1-yl)ethyl)pyrrolidin-1-yl)-methanone] | 93 | 78 | 96 | 71 |  |  |  | 
O=C(c1ccc(F)cc1)C1CCN(CC[C@@H]2CCCN2C(=O)c2cc3ccc(OC(F)(F)F)cc3[nH]2)CC1 [Example 160, (S)-(2-(2-(4-(4-Fluorobenzoyl)piperidin-1-yl)ethyl)pyrrolidin-1-yl)(6-(trifluoromethoxy)-1H-indol-2-yl)methanone] | 90 | 72 | 98 | 53 |  |  |  | 
CC(C)c1ccc2cc(C(=O)N3CCC[C@H]3CCN3CCC(C(=O)c4ccc(F)cc4)CC3)[nH]c2c1 [Example 161, (S)-(2-(2-(4-(4-Fluorobenzoyl)piperidin-1-yl)ethyl)pyrrolidin-1-yl)(6-isopropyl-1H-indol-2-yl)methanone] | 49 | 69 | 97 | 66 |  |  |  | 
COc1c(F)ccc2[nH]c(C(=O)N3CCC[C@H]3CCN3CCC(C(=O)c4ccc(F)cc4)CC3)cc12 [Example 162, (S)-(5-Fluoro-4-methoxy-1H-indol-2-yl)(2-(2-(4-(4-fluorobenzoyl)piperidin-1-yl)ethyl)pyrrolidin-1-yl)methanone] | 86 | 84 | 93 | 79 |  |  |  | 
O=C(c1ccc(F)cc1)C1CCN(CC[C@@H]2CCCN2C(=O)c2[nH]c3cc(F)ccc3c2F)CC1 [Example 163, (S)-(3,6-Difluoro-1H-indol-2-yl)(2-(2-(4-(4-fluorobenzoyl)piperidin-1-yl)ethyl)pyrrolidin-1-yl)methanone] | 88 | 75 | 95 | 48 |  |  |  | 
O=C(c1ccc(F)cc1)C1CCN(CC[C@@H]2CCCN2C(=O)c2[nH]c3cc(OC(F)(F)F)ccc3c2F)CC1 [Example 164, (S)-(3-Fluoro-6-(trifluoromethoxy)-1H-indol-2-yl)(2-(2-(4-(4-fluorobenzoyl)piperidin-1-yl)ethyl)pyrrolidin-1-yl)methanone] | 79 | 56 | 99 | 43 |  |  |  | 
O=C(c1ccc(F)cc1)C1CCN(CC[C@@H]2CCCN2C(=O)c2[nH]c3ccccc3c2F)CC1 [Example 165, (S)-(3-Fluoro-1H-indol-2-yl)(2-(2-(4-(4-fluorobenzoyl)piperidin-1-yl)ethyl)pyrrolidin-1-yl)methanone] | 90 | 74 | 90 | 53 |  |  |  | 
(S)-(2-(2-(4-(4-Fluorobenzoyl)piperidin-1-yl)ethyl)pyrrolidin-1-yl)(1-methyl-1H-indol-5-yl)methanone [Example 169] |  |  |  |  | 81 | 47 | 73 | 49
